Read-outs that look alike come from different tables or passages of the source.
Tests used:
[1] = assay type: physicochemical; details: stored at room temperature (21-25° C.)
Experimental: At each time period, 0.05 g of powder was dissolved in 10 ml-15 of ethanol, diluted to fall within the analytical range, and injected into the LCMSMS for analysis.

[2] = Stability of cannabinoid and Vitamin E components of Beverage 2 (AB Red) stored at 8° C. and 21-25° C., LCMSMS over 570 days; details: 8° C.
Experimental: The LCMSMS was calibrated for 0-50 ng/ml cannabinoids with the same resin material used in the preparation of the concentrates. At each time period, 100 μml of beverage was diluted with 10 ml of methanol and injected into the LCMSMS for analysis.

CCCCCc1cc(O)c2c(c1)OC1(C)CCC3C1C2C3(C)C (centres unmarked) [CBL, cannabicyclol]
Stability in Powder Concentrate (content by LCMSMS) ([1]; day 0): 0.050 mg/g powder
Stability in Powder Concentrate (content by LCMSMS) ([1]; day 1): 0.051 mg/g powder
Stability in Powder Concentrate (content by LCMSMS) ([1]; day 2): 0.049 mg/g powder
Stability in Powder Concentrate (content by LCMSMS) ([1]; day 3): 0.050 mg/g powder
Stability in Powder Concentrate (content by LCMSMS) ([1]; day 5): 0.052 mg/g powder
Stability in Powder Concentrate (content by LCMSMS) ([1]; day 8): 0.050 mg/g powder
Stability in Powder Concentrate (content by LCMSMS) ([1]; day 9): 0.050 mg/g powder
Stability in Powder Concentrate (content by LCMSMS) ([1]; day 10): 0.050 mg/g powder
Stability in Powder Concentrate (content by LCMSMS) ([1]; day 11): 0.052 mg/g powder
Stability in Powder Concentrate (content by LCMSMS) ([1]; day 12): 0.052 mg/g powder
Stability in Powder Concentrate (content by LCMSMS) ([1]; day 15): 0.048 mg/g powder
Stability in Powder Concentrate (content by LCMSMS) ([1]; day 16): 0.049 mg/g powder
Stability in Powder Concentrate (content by LCMSMS) ([1]; day 17): 0.049 mg/g powder
Stability in Powder Concentrate (content by LCMSMS) ([1]; day 18): 0.052 mg/g powder
Stability in Powder Concentrate (content by LCMSMS) ([1]; day 19): 0.052 mg/g powder
Stability in Powder Concentrate (content by LCMSMS) ([1]; day 22): 0.051 mg/g powder
Stability in Powder Concentrate (content by LCMSMS) ([1]; day 23): 0.051 mg/g powder
Stability in Powder Concentrate (content by LCMSMS) ([1]; day 24): 0.050 mg/g powder
Stability in Powder Concentrate (content by LCMSMS) ([1]; day 25): 0.050 mg/g powder
Stability in Powder Concentrate (content by LCMSMS) ([1]; day 26): 0.051 mg/g powder
Stability in Powder Concentrate (content by LCMSMS) ([1]; day 29): 0.048 mg/g powder
Stability in Powder Concentrate (content by LCMSMS) ([1]; day 30): 0.051 mg/g powder
Stability in Powder Concentrate (content by LCMSMS) ([1]; day 60): 0.050 mg/g powder
Stability in Powder Concentrate (content by LCMSMS) ([1]; day 90): 0.050 mg/g powder
Stability in Powder Concentrate (content by LCMSMS) ([1]; day 120): 0.048 mg/g powder
Stability in Powder Concentrate (content by LCMSMS) ([1]; day 150): 0.050 mg/g powder
Stability in Powder Concentrate (content by LCMSMS) ([1]; day 180): 0.049 mg/g powder
Stability in Powder Concentrate (content by LCMSMS) ([1]; day 210): 0.052 mg/g powder
Stability in Powder Concentrate (content by LCMSMS) ([1]; day 240): 0.049 mg/g powder
Stability in Powder Concentrate (content by LCMSMS) ([1]; day 270): 0.051 mg/g powder
Stability in Powder Concentrate (content by LCMSMS) ([1]; day 300): 0.050 mg/g powder
Stability in Powder Concentrate (content by LCMSMS) ([1]; day 330): 0.049 mg/g powder
Stability in Powder Concentrate (content by LCMSMS) ([1]; day 360): 0.050 mg/g powder
Stability in Powder Concentrate (content by LCMSMS) ([1]; day 390): 0.052 mg/g powder
Stability in Powder Concentrate (content by LCMSMS) ([1]; day 420): 0.050 mg/g powder
Stability in Powder Concentrate (content by LCMSMS) ([1]; day 450): 0.052 mg/g powder
Stability in Powder Concentrate (content by LCMSMS) ([1]; day 480): 0.051 mg/g powder
Stability in Powder Concentrate (content by LCMSMS) ([1]; day 510): 0.050 mg/g powder
Stability in Powder Concentrate (content by LCMSMS) ([1]; day 540): 0.048 mg/g powder
Stability in Powder Concentrate (content by LCMSMS) ([1]; day 570): 0.050 mg/g powder
Stability of Cannabinoids in AB Red ([2]; 0 days): 0.510 µg/mL
Stability of Cannabinoids in AB Red ([2]; 1 days): 0.512 µg/mL
Stability of Cannabinoids in AB Red ([2]; 2 days): 0.508 µg/mL
Stability of Cannabinoids in AB Red ([2]; 3 days): 0.499 µg/mL
Stability of Cannabinoids in AB Red ([2]; 5 days): 0.501 µg/mL
Stability of Cannabinoids in AB Red ([2]; 8 days): 0.496 µg/mL
Stability of Cannabinoids in AB Red ([2]; 9 days): 0.496 µg/mL
Stability of Cannabinoids in AB Red ([2]; 10 days): 0.505 µg/mL
Stability of Cannabinoids in AB Red ([2]; 11 days): 0.501 µg/mL
Stability of Cannabinoids in AB Red ([2]; 12 days): 0.499 µg/mL
Stability of Cannabinoids in AB Red ([2]; 15 days): 0.510 µg/mL
Stability of Cannabinoids in AB Red ([2]; 16 days): 0.502 µg/mL
Stability of Cannabinoids in AB Red ([2]; 17 days): 0.514 µg/mL
Stability of Cannabinoids in AB Red ([2]; 18 days): 0.513 µg/mL
Stability of Cannabinoids in AB Red ([2]; 19 days): 0.510 µg/mL
Stability of Cannabinoids in AB Red ([2]; 22 days): 0.495 µg/mL
Stability of Cannabinoids in AB Red ([2]; 23 days): 0.502 µg/mL
Stability of Cannabinoids in AB Red ([2]; 24 days): 0.508 µg/mL
Stability of Cannabinoids in AB Red ([2]; 25 days): 0.510 µg/mL

Source: patent US20240415914A1, “Water Dispersible Cannabinoid Compositions” (priority 2021, published 2024)
